Results on 11 molecules are retold here after ChEMBL document CHEMBL1125668, “Synthesis and anti-HIV activity of 2-, 3-, and 4-substituted analogues of 1-[(2-hydroxyethoxy)methyl]-6-(phenylthio)thymine (HEPT)” (J Med Chem, 1991).

The EC50 is the concentration needed to bring the measured effect to its halfway point. Low readings indicate greater potency, high ones weaker potency. Broadly, the CC50 is the concentration giving 50% cytotoxicity. High values mean lower toxicity to the cells, low ones greater toxicity to the cells.

For test [1], the system named is Human immunodeficiency virus 2. The test is described as follows: Inhibitory activity against HIV-2(LAV-2ROD strain) replication in MT-4 cells. It counts as functional, organism-based. Conditions: Human immunodeficiency virus 2, MT4.
Test [2] deals with Human immunodeficiency virus 1. The test is described as follows: Cytotoxic concentration of compound required to reduce the viability of mock infected MT-4 cells against the HIV-1 (HTLV-IIIB)induced cytopathic effect. The test is classed as functional. Conditions: Human immunodeficiency virus 1, MT4. For orientation: Cytopathic effects are the visible damage that an infection or toxin causes in cultured cells.

Test [3] relates to Human immunodeficiency virus 1. The test is described as follows: Inhibitory activity against HIV-1 (HTLV-IIIB strain) replication in MT-4 cells. The test is classed as functional, organism-based. Conditions: Human immunodeficiency virus 1, MT4.
Test [4] deals with Human immunodeficiency virus 2. The test is described as follows: Inhibitory activity against HIV-2(LAV-2EHO strain) replication in MT-4 cells. It counts as functional, organism-based. As to conditions: Human immunodeficiency virus 2, MT4.
Test [5] relates to Human immunodeficiency virus 1. The test is described as follows: Inhibitory activity against HIV-1 (HTLV-IIIB strain) replication in peripheral blood lymphocytes. It counts as functional, organism-based.
For test [6], the system named is Human immunodeficiency virus 1. Put plainly: Inhibitory activity against HIV-1 (HTLV-IIIRF strain) replication in MT-4 cells. It counts as functional, organism-based. As to conditions: Human immunodeficiency virus 1, MT4.
Test [7] relates to Human immunodeficiency virus 1. The test is described as follows: Cytotoxic concentration of compound required to incorporate [5-3H]-Urd into RNA of mock infected peripheral blood lymphocytes in HIV-1 (HTLV-IIIB)by 50%. The test is classed as functional.

For `Nc1ncnc2c1ncn2[C@H]1CC[C@@H](CO)O1`, the EC50 in test [1] was 7.2 µM; in test [3] it was 6.3 µM. This molecule displayed a CC50 in test [2] greater than 500 µM.

In turn, `O=c1cc(Sc2ccccc2)n(COCCO)c(=S)[nH]1` returned a CC50 in test [2] of 198 µM. Moreover, the EC50 in test [3] is greater than 198 µM.

In the case of `Nc1cc(Sc2ccccc2)n(COCCO)c(=O)n1`, the CC50 in test [2] was greater than 250 µM. In test [3], this molecule returned an EC50 greater than 250 µM.

`Cc1c(Sc2ccccc2)n(COCCO)c(=O)[nH]c1=S`: it took 27 µM to reach half-maximal cytotoxicity in test [2] (CC50). In test [3], the EC50 is greater than 27 µM.

`Cc1c(Sc2ccccc2)n(COCCO)c(=O)n(C)c1=O` gave a CC50 in test [2] greater than 374 µM. The molecule further yielded an EC50 in test [3] greater than 374 µM.

`Cc1c(Sc2ccccc2)n(COCCO)c(=O)n(Cc2ccccc2)c1=O`: in test [2], the CC50 was determined as 40 µM. Besides, in test [3], the EC50 is greater than 40 µM.

`Cc1c(N)nc(=O)n(COCCO)c1Sc1ccccc1` showed a CC50 in test [2] of 91 µM. In test [3], this molecule gave an EC50 greater than 91 µM.

`O=c1[nH]c(=S)cc(Sc2ccccc2)n1COCCO` displayed a CC50 in test [2] of 4.1 µM. In test [3], this molecule showed an EC50 greater than 4.1 µM.

For `Cc1c(Sc2ccccc2)n(COCCO)c(=S)[nH]c1=O`, the EC50 in test [1] was greater than 100 µM; in test [3], 0.98 µM; in test [4], greater than 100 µM; in test [5] it was 2.9 µM; in test [6], 2.5 µM. Also, the CC50 was found to be 123 µM in test [2] and 292 µM in test [7].

Regarding `Cc1c(Sc2ccccc2)n(COCCO)c(=O)[nH]c1=O` [HEPT], the EC50 in test [1] was greater than 250 µM; in test [3], 7 µM; in test [4] it was greater than 250 µM; in test [5], 7.9 µM; in test [6], 8.1 µM. In addition, the CC50 in test [2] amounted to 740 µM; in test [7] it was 640 µM.

With `Cc1cn([C@H]2C[C@H](N=[N+]=[N-])[C@@H](CO)O2)c(=O)[nH]c1=O` [ZIDOVUDINE], the EC50 is 0.0028 µM in test [1] and 0.003 µM in test [3]. For the same molecule, the CC50 in test [2] amounted to 7.8 µM.
